Experimental data taken from paper PMC5678437, “A new antagonist for CCR4 attenuates allergic lung inflammation in a mouse model of asthma” (Scientific Reports, 2017).

Assays:
[1] = molecular target: T1, CXCR3 (Homo sapiens, UniProt P49682); test: Chemotaxis inhibition assay for receptor specificity, HEK293-CXCR3; type: cell-based; settings: 0.2, 1, 5, 25 μM, 30 min pretreatment
T1 construct: expressed in transfected cells; host or cells: HEK293; plasmid from Chinese National Human Genome Center
T1 sequence (P49682 1-415 isoform P49682-2): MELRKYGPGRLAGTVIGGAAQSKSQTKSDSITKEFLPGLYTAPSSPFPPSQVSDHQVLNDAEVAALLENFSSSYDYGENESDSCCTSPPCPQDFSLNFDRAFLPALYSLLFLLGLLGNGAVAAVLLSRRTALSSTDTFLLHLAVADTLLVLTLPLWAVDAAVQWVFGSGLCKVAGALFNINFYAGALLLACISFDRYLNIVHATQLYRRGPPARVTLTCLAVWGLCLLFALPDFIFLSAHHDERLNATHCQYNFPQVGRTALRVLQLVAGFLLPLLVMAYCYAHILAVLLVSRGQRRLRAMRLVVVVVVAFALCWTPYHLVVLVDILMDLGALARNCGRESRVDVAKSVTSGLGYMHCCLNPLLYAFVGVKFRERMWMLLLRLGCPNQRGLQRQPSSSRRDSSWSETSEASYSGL
Description: (§1) HEK293 cells were transfected with different chemokine receptors. The corresponding chemokines of different receptors were placed in the lower chambers. The transfected cells were pretreated with different concentrations of Compound 8a or 1‰ DMSO for 30 min at a density of 1 × 10^6 cells/ml and added to the upper chambers, the final concentration of the compound is: 0.2 μM, 1 μM, 5 μM, and 25 μM, respectively.

[2] = molecular target: T2, CCR6 (Homo sapiens, UniProt P51684); test: Chemotaxis assay for receptor specificity, HEK293-CCR6; type: cell-based; settings: compound as chemoattractant in lower chamber, 0.2, 1, 5, 25 μM
T2 construct: expressed in transfected cells; host or cells: HEK293, pcDI-CCR6 plasmid made in the authors' laboratory
T2 sequence (P51684 1-374): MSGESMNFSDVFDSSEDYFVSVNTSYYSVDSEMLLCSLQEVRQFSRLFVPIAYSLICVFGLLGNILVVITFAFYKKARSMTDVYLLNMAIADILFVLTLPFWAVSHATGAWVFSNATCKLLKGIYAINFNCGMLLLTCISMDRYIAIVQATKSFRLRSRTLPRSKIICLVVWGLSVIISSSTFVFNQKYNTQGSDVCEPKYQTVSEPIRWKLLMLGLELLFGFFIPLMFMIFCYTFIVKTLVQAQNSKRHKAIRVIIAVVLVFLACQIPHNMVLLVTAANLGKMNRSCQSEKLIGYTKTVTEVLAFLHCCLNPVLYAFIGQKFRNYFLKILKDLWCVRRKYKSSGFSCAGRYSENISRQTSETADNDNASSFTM
Description: (§2) HEK293 cells were transfected with different chemokine receptors. Compound 8a with DMSO was diluted to 0.2 mM, 1 mM, 5 mM and 25 mM, and then we used RPMI 1640 medium containing 0.1% BSA for dilution. The final concentration is: 0.2 μM, 1 μM, 5 μM and 25 μM. DMSO was also diluted 1000-fold with 0.1% BSA RPMI 1640 medium. Chemokines was also diluted to an appropriate concentration. The dilutions of Compound 8a, 1‰ DMSO, the corresponding chemokines of different receptors and 0.1% BSA RPMI 1640 medium were placed in the lower chambers (27.5 μl/well). The transfected HEK293 cells were resuspended in the same medium at a density of 1 × 10^6 cells/ml and added to the upper chambers (55 μl/well).

[3] = molecular target: T2, CCR6; test: Chemotaxis inhibition assay for receptor specificity, HEK293-CCR6; type: cell-based; settings: 0.2, 1, 5, 25 μM, 30 min pretreatment
Description: as §1

[4] = system: IL-4; test: IL-4 in lung homogenate by ELISA in OVA-induced asthmatic mice; type: in vivo, BALB/c mice; settings: 5 mg inhaled aerosol; after OVA challenge
Description: Male BALB/c 6 week old mice were purchased from the Experimental Animal Center of Zhejiang University. All mice were raised in a specific pathogen-free animal facility. All animal experiments were carried out according to the guidelines for the care and use of laboratory animals and were approved by the ethics committee of Zhejiang University and Peking University, China.
Mice were sensitized and challenged with chicken egg OVA (sigma-Aldrich, St Louis, MO, USA) as described in details previously. Briefly, after sensitized by intraperitoneal injection of 100 μl (80 μg) OVA in 100 μl alum (Pierce, Rockford, IL, USA) on days 0 and 14, mice were exposure to 1% OVA aerosols for 40 min on days 24–26. Control mice were injected intraperitoneally with saline and exposed to saline aerosols.
Compound 8a was dissolved in saline with DMSO (0.5%). Half an hour before each OVA challenge, the groups of mice treated with various doses of compound 8a (0.2, 1, 5 mg) inhaled aerosolized compound 8a for 45 min on days 24–26. […]
Twenty-four hours after the last challenge, lungs were removed from control or asthmatic mice, and they were cut into pieces and homogenized in 500 μl PBS, centrifuged (2000 rpm, 10 min) and the supernatant collected. The concentration of IL-4 in lungs were determined by ELISA kit (Sensitivity: 2 pg/ml, R&D Systems, Minneap-olis, MN, USA) following the manufacturer’s protocol.

[5] = molecular target: T1, CXCR3; test: Chemotaxis assay for receptor specificity, HEK293-CXCR3; type: cell-based; settings: compound as chemoattractant in lower chamber, 0.2, 1, 5, 25 μM
Description: as §2

[6] = molecular target: T3, CXCR4 (Homo sapiens, UniProt P61073); test: Chemotaxis assay for receptor specificity, HEK293-CXCR4; type: cell-based; settings: compound as chemoattractant in lower chamber, 0.2, 1, 5, 25 μM
T3 construct: expressed in transfected cells; host or cells: HEK293; plasmid from Chinese National Human Genome Center
Description: as §2

[7] = molecular target: T4, CCR7 (Homo sapiens, UniProt P32248); test: Chemotaxis inhibition assay for receptor specificity, HEK293-CCR7; type: cell-based; settings: 0.2, 1, 5, 25 μM, 30 min pretreatment
T4 construct: expressed in transfected cells; host or cells: HEK293, pcDB-CCR7 plasmid made in the authors' laboratory
T4 sequence (P32248 25-378): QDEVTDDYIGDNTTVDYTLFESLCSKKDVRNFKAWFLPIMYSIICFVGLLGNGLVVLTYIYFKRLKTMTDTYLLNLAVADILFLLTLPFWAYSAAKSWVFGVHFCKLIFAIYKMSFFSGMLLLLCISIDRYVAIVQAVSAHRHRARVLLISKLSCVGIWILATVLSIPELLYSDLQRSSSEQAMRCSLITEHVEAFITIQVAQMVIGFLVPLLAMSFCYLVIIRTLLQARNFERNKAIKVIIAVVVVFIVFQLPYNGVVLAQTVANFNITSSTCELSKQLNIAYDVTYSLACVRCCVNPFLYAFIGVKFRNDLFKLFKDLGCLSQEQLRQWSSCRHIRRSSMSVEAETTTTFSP
Description: as §1

T3 sequence (P61073 1-356 isoform P61073-2): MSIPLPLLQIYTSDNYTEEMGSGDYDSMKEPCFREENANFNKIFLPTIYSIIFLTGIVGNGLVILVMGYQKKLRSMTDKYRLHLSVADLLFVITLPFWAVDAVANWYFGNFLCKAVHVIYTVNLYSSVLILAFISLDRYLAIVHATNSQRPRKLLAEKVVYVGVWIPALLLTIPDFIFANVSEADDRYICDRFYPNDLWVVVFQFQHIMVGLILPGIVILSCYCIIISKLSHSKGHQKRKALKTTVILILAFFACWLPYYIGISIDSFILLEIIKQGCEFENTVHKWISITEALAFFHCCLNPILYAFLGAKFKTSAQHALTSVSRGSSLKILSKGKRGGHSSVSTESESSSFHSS

inhibition of chemotaxis of HEK293-CXCR3 to its ligand [1]: few influence | chemotaxis effect of the compound on HEK293-CCR6 [2]: didn’t exert chemotaxis effects | inhibition of chemotaxis of HEK293-CCR6 to its ligand [3]: few influence | chemotaxis effect of the compound on HEK293-CXCR3 [5]: didn’t exert chemotaxis effects | chemotaxis effect of the compound on HEK293-CXCR4 [6]: didn’t exert chemotaxis effects | inhibition of chemotaxis of HEK293-CCR7 to its ligand [7]: few influence
Compound: O=C(C1CCCCN1)N1CCN(c2nc(Cl)cc(NCc3ccc(Cl)cc3Cl)n2)CC1 (stereo not shown) [compound 8a, {4-[4-Chloro-6-(2,4-dichloro-benzylamino)-pyrimidin-2-yl]-piperazin-1-yl}-piperidin-2-yl-methanone]
expression of IL-4 in lungs (ELISA) [4]: notably decreased
